Test results: patent publication US8946426B2, “Substituted bicyclic heterocyclic compounds as gamma secretase modulators” (Janssen Pharmaceuticals, Inc., priority 2009, dated 2015)
pIC50: −log10 of the molar value.

Key:
[1] = tested on: Notch-processing activity of the γ-secretase-complex; experiment: Notch cell-free assay (NICD production from recombinant Notch substrate N99); assay type: biochemical; settings: 1 μM test compound; 0.3-0.5 μM mouse Notch substrate; enriched gamma secretase; 37° C., 6 to 22 h; western blot; control GSI concentration not given
Description: The Notch transmembrane domain is cleaved by gamma secretase to release Notch Intracellular C-terminal Domain (NICD).
To monitor the effect of compounds on NICD production, a recombinant Notch substrate (N99) was prepared. The Notch substrate, comprised of mouse Notch fragment (V1711-E1809), an N-terminal methionine and a C-terminal FLAG sequence ([…]), was expressed in E. coli and purified on a column containing an anti-FLAG M2 affinity matrix.
A typical Notch cell-free assay consisted of 0.3-0.5 μM Notch substrate, an enriched preparation of gamma secretase and 1 μM of a test compound (compounds 16, 18 and 106 of the present invention). Controls included a gamma secretase inhibitor (GSI), such as (2S)—N-[2-(3,5-difluorophenyl)acetyl]-L-alanyl-2-phenyl-glycine 1,1-dimethylethyl ester (DAPT) or (2S)-2-hydroxy-3-methyl-N-[(1S)-1-methyl-2-oxo-2-[[(1S)-2,3,4,5-tetrahydro-3-methyl-2-oxo-1H-3-benzazepin-1-yl]amino]ethyl]-butanamide (Semagacestat), and DMSO, the final concentration of DMSO being 1%. Recombinant Notch substrate was pre-treated with 17 μM DTT (1,4-dithiothreitol) and 0.02% SDS (Sodium Dodecyl Sulfate) and heated at 65° C. for 10 min. The mixture of substrate, gamma secretase and compound/DMSO was incubated at 37° C. for 6 to 22 hours (h). Six-hour incubation was sufficient to produce the maximal amount of NICD and the cleaved product remained stable for an additional 16 H. Reaction products were processed for SDS PAGE (Sodium Dodecyl Sulfate-Poly Acrylamide Gel Electrophoresis) and western blotting. Blots were probed with an anti-Flag M2 antibody, followed by LI-COR infrared secondary antibody, and analyzed with the Odyssey Infrared Imaging System (LI-COR® Biosciences).

Aβ42 [2] = experiment: Method 1: Aβ42 sandwich ELISA in supernatant of SKNBE2 cells carrying APP 695-wild type (Tables 7a, 7b); assay type: cell-based
In short: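 SKNBE2 cells expressing wild-type APP695 were exposed to compound for 18 hours. Secreted Aβ42 was quantified by sandwich ELISA with C-terminal-selective capture, biotinylated 3D6 detection and TMB read-out at 450 nm. IC50 came from 4-parameter fits of % inhibition or % of untreated control; WST-1 monitored toxicity.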

Aβtotal [3] = experiment: Method 1: Aβtotal sandwich ELISA in supernatant of SKNBE2 cells carrying APP 695-wild type (Tables 7a, 7b); assay type: cell-based
In short: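 SKNBE2 cells expressing wild-type APP695 were exposed to compound for 18 Hours in Ultraculture with 1% glutamine. Aβtotal in the supernatant was read by 6E10-capture/biotinylated 4G8 sandwich ELISA with a fluorogenic peroxidase read-out, and WST-1 checked toxicity. IC50 came from a 4-parameter fit of percent inhibition or percent of control versus concentration.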

Aβtotal [4] = experiment: Method 2: Aβtotal Alphalisa in supernatant of SKNBE2 cells carrying APP 695-wild type (Table 7c); assay type: cell-based; settings: Method 2, Alphalisa, overnight incubation
In short: (§1)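 SKNBE2 cells expressing wild-type APP695 incubated overnight at 37° C with test compound, 10^4 cells/well. Supernatant Aβ42 (C-terminal JRF/cAβ42/26 with N-terminal JRF/AβN/25) and Aβtotal (JRF/AβN/25 with 4G8) quantified by AlphaLISA. IC50 from 4-parameter fit of percent of untreated control.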

Aβ42 [5] = experiment: Method 2: Aβ42 Alphalisa in supernatant of SKNBE2 cells carrying APP 695-wild type (Table 7c); assay type: cell-based; settings: Method 2, Alphalisa, overnight incubation
In short: as §1

Aβtotal [6] = experiment: In vivo efficacy: Aβtotal lowering in brain after single oral dose (Table 8); settings: mouse brain soluble fraction, ELISA, compared to untreated animals
Description: (§2) To determine whether acute administration of an Aβ42 lowering agent would reduce Aβ42 levels in vivo, non-transgenic rodents, e.g. mice or rats were used. Alternatively, two to three month old Tg2576 mice expressing APP695 containing the “Swedish” variant can be used or a transgenic mouse model developed by Dr. Fred Van Leuven (K.U.Leuven, Belgium) and co-workers, with neuron-specific expression of a clinical mutant of the human amyloid precursor protein [V7171] (Moechars et al., 1999 J. Biol. Chem. 274, 6483). Young transgenic mice have high levels of Aβ in the brain but no detectable Aβ deposition. At approximately 6-8 months of age, the transgenic mice start to display spontaneous, progressive accumulation of β-amyloid (Aβ) in the brain, eventually resulting in amyloid plaques within the subiculum, hippocampus and cortex. Animals treated with the Aβ42 lowering agent were examined and compared to those untreated or treated with vehicle and brain levels of soluble Aβ42 and total Aβ would be quantitated by standard techniques, for example, using ELISA. Treatment periods varied from hours to days and were adjusted based on the results of the Aβ42 lowering once a time course of onset of effect could be established.
(§3) A typical protocol for measuring Aβ42 lowering in vivo is shown but it is only one of many variations that could be used to optimize the levels of detectable Aβ. For example, Aβ42 lowering compounds were formulated in 20% of Captisol® (a sulfobutyl ether of β-cyclodextrin) in water or 20% hydroxypropyl β cyclodextrin. The Aβ42 lowering agents were administered as a single oral dose or by any acceptable route of administration to overnight fasted animals. After four hours, the animals were sacrificed and Aβ42 levels were analysed.
(§4) Blood was collected by decapitation and exsanguinations in EDTA-treated collection tubes. Blood was centrifuged at 1900 g for 10 min at 4° C. and the plasma recovered and flash frozen for later analysis. The brain was removed from the cranium and hindbrain. The cerebellum was removed and the left and right hemisphere were separated. The left hemisphere was stored at −18° C. for quantitative analysis of test compound levels. The right hemisphere was rinsed with phosphate-buffered saline (PBS) buffer and immediately frozen on dry ice and stored at −80° C. until homogenization for biochemical assays.
(§5) Mouse brains were resuspended in 10 volumes of 0.4% DEA (diethylamine)/50 mM NaCl pH 10 (for non-transgenic animals) or 0.1% 3-[(3-cholamidopropyl)-dimethyl-ammonio]-1-propanesulfonate (CHAPS) in tris buffered saline (TBS) (for transgenic animals) containing protease inhibitors (Roche-11873580001 or 04693159000 per gram of tissue, e.g. for 0.158 g brain, add 1.58 ml of 0.4% DEA. All samples were sonicated for 30 sec on ice at 20% power output (pulse mode). Homogenates were centrifuged at 221.300×g for 50 min. The resulting high speed supernatants were then transferred to fresh tubes and were optionally further purified before the next step. A portion of the supernatant was neutralized with 10% 0.5 M Tris-HCl and this was used to quantify Aβtotal.
(§6) The obtained supernatants were purified with Water Oasis HLB reverse phase columns (Waters Corp., Milford, Mass.) to remove non-specific immunoreactive material from the brain lysates prior subsequent Aβ detection. Using a vacuum manifold, all solutions were passed through the columns at a rate of approximately 1 ml per minute, so the vacuum pressure was adjusted accordingly throughout the procedure. Columns were preconditioned with 1 ml of 100% MeOH, before equilibration with 1 ml of H2O. Non-neutralized brain lysates were loaded onto the columns. The loaded samples were then washed twice with the first wash performed with 1 ml of 5% MeOH, and the second wash with 1 ml of 30% MeOH. Finally, the Aβ was eluted from the columns and into 100×30 mm glass tubes, with a solution of 90% MeOH with 2% NH4OH. […]

Aβ42 [7] = experiment: In vivo efficacy: Aβ42 lowering in brain after single oral dose (Table 8); settings: mouse brain soluble fraction, ELISA, compared to untreated animals
Description: as §2, §3, §4, §5, §6

[8] = Table 7b, averaged IC50, non-linear regression of percentage of control vs log concentration, 4-parameter equation
[9] = Homo sapiens, SKNBE2, Table 7b, averaged IC50, non-linear regression of percentage of control vs log concentration, 4-parameter equation
[10] = Homo sapiens, Table 7a, SKNBE2 cells, compounds 18 h, XLfit 4-parameter fit of percent inhibition, top/bottom fixed to 100/0, hill slope 1

Row | SMILES | Aβtotal (% Ctrl)_Mean (Aβtotal [6]) | Aβ42 (% Ctrl)_Mean (Aβ42 [7]) | melting point | pIC50 (Aβ42 [2]; [9]) | pIC50 (Aβtotal [3]; [9]) | other results
1 | Cc1ncc(-c2ccc(Nc3cc(F)cc4c3nc(-c3ccc(F)cc3)n4C)cn2)o1 [Compound 106] |  |  |  |  |  | effect on the Notch-processing activity of the γ-secretase-complex (production of NICD) [1]: did not show an effect; pIC50 (Aβ42 [2]; [8]): 8.00; pIC50 (Aβtotal [3]; [8]): < 6.00; pIC50 (Aβtotal [4]): < 5.00; pIC50 (Aβ42 [5]): 7.62
2 | COc1cc(Nc2cc(F)cc3c2nc(N2CCCC2)n3C)ccc1-c1cnc(C)o1 [Compound 104] | 97 % Ctrl | 110 % Ctrl |  |  |  | pIC50 (Aβtotal [4]): < 5.00; pIC50 (Aβ42 [5]): 6.30
3 | COc1cc(Nc2cccn3cc(-c4ccc(F)cc4)nc23)ccc1-c1ocnc1C [Compound 1] |  |  | 163.2 °C | 6.70 | < 5.30 | pIC50 (Aβ42 [2]; [10]): 6.69; pIC50 (Aβtotal [3]; [10]): < 5.30
4 | COc1cc(Nc2cccc3c2nc(-c2ccc(F)cc2)n3C)ccc1-c1cnn(C)c1 [Compound 13] | 105 % Ctrl | 87 % Ctrl | 157.6 °C | 7.20 | < 5.52 | pIC50 (Aβ42 [2]; [10]): 7.19; pIC50 (Aβtotal [3]; [10]): < 5.52
5 | COc1cc(Nc2nccc3c2nc(-c2ccc(F)cc2)n3C)ccc1-c1cnc(C)o1 [Compound 14] | 91 % Ctrl | 78 % Ctrl | 204.9 °C | 6.98 | < 5.52 | pIC50 (Aβ42 [2]; [10]): 6.96; pIC50 (Aβtotal [3]; [10]): < 5.52
6 | Cc1cn2cc(Br)nc(Nc3ccc(-c4cnc(C)o4)cc3)c2n1 [Compound 179] |  |  | 200.1 °C | < 5.52 | < 5.52 | 
7 | COC(=O)c1cc(Nc2ccc(-c3ocnc3C)c(OC)c2)c2nc(CC(C)C)cn2c1 [Compound 162] |  |  | 157.1 °C | 7.60 | < 5.00 | pIC50 (Aβtotal [4]; Homo sapiens): < 5.00; pIC50 (Aβ42 [5]; Homo sapiens): 7.49
8 | Cc1ncc(-c2ccc(Nc3cc(C(F)(F)F)cc4c3nc(-c3ccc(F)cc3)n4C)cn2)o1 [Compound 101] | 92 % Ctrl | 77 % Ctrl |  |  |  | pIC50 (Aβtotal [4]): < 5.00; pIC50 (Aβ42 [5]): 7.34
9 | Cc1cc2c(nc(-c3ccc(F)cc3)n2C)c(Nc2ccc(-c3cnc(C)o3)cc2)n1 [Compound 58] | 105 % Ctrl | 89 % Ctrl |  |  |  | pIC50 (Aβ42 [2]; [8]): 6.62; pIC50 (Aβtotal [3]; [8]): < 5.00
10 | COc1cc(Nc2cc(C(F)(F)F)cn3cc(C)nc23)ccc1-c1ocnc1C.Cl.Cl [Compound 141] | 89 % Ctrl | 87 % Ctrl |  |  |  | pIC50 (Aβ42 [2]; [8]): 6.60; pIC50 (Aβtotal [3]; [8]): < 5.00
11 | Cc1ncc(-c2ccc(Nc3cccn4c(C(C)C)c(-c5ccc(F)cc5)nc34)cc2)o1 [Compound 175] |  |  | 157.2 °C | 7.48 | < 5.52 | 
12 | COc1cc(Nc2nc(C)cc3c2nc(-c2ccc(F)cc2)n3C)ccc1-c1cnc(C)o1 [Compound 59] | 95 % Ctrl | 97 % Ctrl |  |  |  | pIC50 (Aβ42 [2]; [8]): 7.14; pIC50 (Aβtotal [3]; [8]): < 5.52
13 | COc1cc(Nc2cc(C(F)(F)F)cn3cc(C(C)=O)nc23)ccc1-c1ocnc1C [Compound 165] |  |  | 183.6 °C | 6.54 | < 4.52 | 
14 | COc1cc(Nc2cccn3cc(-c4ccc(F)cc4)nc23)ccc1-c1cnc(C)o1 [Compound 3] |  |  | 219.1 °C | 6.75 | < 5.00 | pIC50 (Aβ42 [2]; [10]): 6.71; pIC50 (Aβtotal [3]; [10]): < 5.00
